# According to patent US8697869B2, “3-(heteroaryl-amino)-1,2,3,4-tetrahydro-9H-carbazole derivatives and their use as prostaglandin D2 receptor modulators” (Actelion Pharmaceuticals Ltd., priority 2010, dated 2014):
# Legend:
# hCRTH2 receptor [1] = target: T1, hCRTH2 receptor (Homo sapiens (Human), UniProt Q9Y5Y4); experiment: hCRTH2 receptor membranes radioligand displacement assay (3H-PGD2); conditions: 3H-PGD2 2.5 nM, HEK293-hCRTH2 membranes, Binding-Buffer with 0.1% BSA
# Procedure: Biological Assays: Preparation of hCRTH2 Receptor Membranes and Radioligand Displacement Assay:
# (§1) First, recombinant HEK293-hCRTH2 cells were detached from culture plates into 5 ml buffer A/plate (Buffer A: 5 mM Tris, 1 mM MgCl2-6H2O pH=7.4) using a rubber policeman. Cells were then transferred into centrifugation tubes and centrifuged for 5 min at 400 g. The cell pellet was resuspended in the same buffer and tubes were frozen at −80° C. Cells were thawed and membrane fragments were generated by homogenization using a polytron homogenizer (30 seconds). The membrane fragments were then centrifuged at 3000 g for 20 minutes and resuspended in buffer C (Buffer C: 75 mM Tris, 25 mM MgCl2, 250 mM Saccharose pH 7.4). Aliquots of membrane fragements were stored at −20° C.
# (§2) Binding assay was performed in a final assay volume of 250 μl. First, 25 μl of test compound, previously diluted in Binding-Buffer (Binding-Buffer: 50 mM Tris-Base, 100 mM NaCl, 1 mM EDTA, 0.1% BSA (protease free), 0.01% NaN3, 10 mM MnCl2 pH 7.0) was placed into each well. After addition of 75 μl Binding-Buffer, 50 μl of the radioligand ^3H-PGD2 (at 2.5 nM (220.000 dpm/well) from ANAWA ART0662) was added to each well. Binding assay was started by addition of 100 μl CRTH2 membrane fragments, reaching a final concentration of 20 μg/well. For non-specific binding, PGD2 was added to the reaction mixture to […] final concentration. This assay mix was incubated for 90 minutes at room temperature and then filtered through a GF/C filter 96-well plate which was pre-soaked for 3 hours in 0.5% polyethyleneimine (PEI). The filter-wells were washed three times with ice cold Binding-Buffer. Then, 40 μl of Microscint-40 (Packard) was added to each well and the retained radioactivity quantified in a Topcount (Packard).
# hCRTH2 receptor [2] = target: T1, hCRTH2 receptor; experiment: Radioligand displacement assay in presence of human serum albumin (HSA); conditions: 3H-PGD2 2.5 nM, Binding-Buffer with 0.5% HSA instead of 0.1% BSA
# Procedure: as §1, §2
# Radioligand Displacement Assay-Human Serum Albumin (HSA):
# Radioligand displacement assay in presence of human serum albumin (HSA) was performed as described above, with following modifications. Binding-Buffer-HSA: Binding-buffer+0.5% Sigma Albumin from Human serum A1887 (instead of 0.1% BSA). A volume of 25 μl test compound, previously diluted in Binding-Buffer-HSA was placed into each well. After addition of 75 μl Binding-Buffer-HSA, 50 μl of ^3H-PGD2 (at 2.5 nM (220.000 dpm/well) from ANAWA ART0662) was added to each well. Remaining protocol was identical as described above.
# eosinophils = experiment: Eosinophil shape change assay with human plasma; type: cell-based; conditions: human polymorphonuclear cells, 50% human plasma, activated with 100 nM PGD2
# Procedure: After obtaining informed consent, blood samples were drawn by venipuncture according to the protocol approved by the ethics committee of Basel, Switzerland. Polymorphonuclear leukocytes (containing eosinophils, basophils and neutrophils) were isolated using the Polymorphprep™ method (Axis-Shield). In brief, anticoagulated whole blood was layered onto a Polymorphprep gradient (density 1.113 g/ml) and centrifuged at 500 g for 30 min. The polymorphonuclear cell fraction was harvested and depleted for erythrocytes by hypotonic saline lysis.
# The polymorphonuclear cells were resuspended in assay buffer (1×PBS with Ca^2+/Mg^2+ supplemented with 0.1% BSA, 10 mM HEPES, and 10 mM Glucose, pH 7.4) at 5×10^6 cells/ml and stained with anti-CD49d-APC ((APC=Allophycocyanin) for 1 hour at RT. Test compounds, at various concentrations, were preincubated 10 min in human plasma (anticoagulated with a thrombin inhibitor). Then, human plasma was added to the polymorphonuclear cells to 50% of final assay volume with polymorphonuclear cells at 4×10^6 cells/rd. After incubation for 10 minutes at 37° C., the polymorphonuclear cells were activated for 5 min at 37° C. by addition of PGD2 at 100 nM final concentration. Activation was stopped by addition of 0.5 ml paraformaldehyde (1%).
# Immediately after fixation with paraformaldehyde, the samples were analyzed by FACSCanto flow cytometer (BD Biosciences) and target cells were identified by their forward-scatter (FSC) and side-scatter (SSC) characteristics. Eosinophils were identified by the anti-CD49d-APC signal and their characteristic side-scatter (SSC) profile. Shape change responses, indicative of eosinophil activation, were quantified as the percent of cells with an increased forward-scatter.
# T1 sequence (Q9Y5Y4 whole entry): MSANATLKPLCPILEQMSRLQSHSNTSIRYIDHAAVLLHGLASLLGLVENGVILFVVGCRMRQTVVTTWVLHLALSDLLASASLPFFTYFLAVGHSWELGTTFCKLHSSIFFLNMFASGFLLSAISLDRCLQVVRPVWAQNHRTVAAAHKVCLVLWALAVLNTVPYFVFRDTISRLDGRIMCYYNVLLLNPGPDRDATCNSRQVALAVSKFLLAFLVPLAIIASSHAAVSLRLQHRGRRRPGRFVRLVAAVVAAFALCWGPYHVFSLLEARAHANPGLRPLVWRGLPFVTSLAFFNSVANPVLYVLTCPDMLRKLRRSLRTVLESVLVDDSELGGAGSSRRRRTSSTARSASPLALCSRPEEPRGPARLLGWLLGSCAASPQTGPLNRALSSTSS
Compound,IC50 (hCRTH2 receptor [1]) [nM],IC50 (hCRTH2 receptor [2]) [nM],IC50 (eosinophils) [nM],IC50 (eosinophils; Eosinophil) [nM]
"O=C(O)Cn1c2c(c3cc(F)ccc31)C[C@@H](Nc1ncc(F)cn1)CC2 [Example 1, (3S)-2-(6-fluoro-3-((5-fluoropyrimidin-2-yl)amino)-3,4-dihydro-1H-carbazol-9-(2H)-yl)acetic acid]",16,20,21,
"O=C(O)Cn1c2c(c3cc(F)ccc31)C[C@@H](Nc1ncc(Cl)cn1)CC2 [Example 3, (3S)-2-(6-fluoro-3-((5-chloropyrimidin-2-yl)amino)-3,4-dihydro-1H-carbazol-9-(2H)-yl)acetic acid]",4.6,23,41,
"O=C(O)Cn1c2c(c3cc(F)ccc31)C[C@H](Nc1ncc(Cl)cn1)CC2 [Example 4, (3R)-2-(6-fluoro-3-((5-chloropyrimidin-2-yl)amino)-3,4-dihydro-1H-carbazol-9-(2H)-yl)acetic acid]",13,27,722,
"CN(c1ncc(F)cn1)[C@H]1CCc2c(c3cc(F)ccc3n2CC(=O)O)C1 [Example 7, (3S)-2-(6-fluoro-3-((5-fluoropyrimidin-2-yl)(methyl)amino)-3,4-dihydro-1H-carbazol-9(2H)-yl)acetic acid]",2.5,7,,8
"CN(c1ncc(Cl)cn1)[C@H]1CCc2c(c3cc(F)ccc3n2CC(=O)O)C1 [Example 9, (3S)-2-(3-((5-chloropyrimidin-2-yl)(methyl)amino)-6-fluoro-3,4-dihydro-1H-carbazol-9(2H)-yl)acetic acid]",2.7,11,,15
"CN(c1ncc(C(F)(F)F)cn1)[C@H]1CCc2c(c3cc(F)ccc3n2CC(=O)O)C1 [Example 11, (3S)-2-(6-fluoro-3-(methyl(5-(trifluoromethyl)pyrimidin-2-yl)amino)-3,4-dihydro-1H-carbazol-9(2H)-yl)acetic acid]",2,15,,49
"CN(c1ncccn1)[C@H]1CCc2c(c3cc(F)ccc3n2CC(=O)O)C1 [Example 15, (3S)-2-(6-fluoro-3-(methyl(pyrimidin-2-yl)amino)-3,4-dihydro-1H-carbazol-9(2H)-yl)acetic acid]",9.9,35,,66
"CN(c1nc2cc(Cl)ccc2o1)[C@H]1CCc2c(c3cc(F)ccc3n2CC(=O)O)C1 [Example 18, (3S)-2-(3-((5-chlorobenzo[d]oxazol-2-yl)(methyl)amino)-6-fluoro-3,4-dihydro-1H-carbazol-9(2H)-yl)acetic acid]",1.4,28,,6
"CN(c1nc2ccccc2o1)[C@H]1CCc2c(c3cc(F)ccc3n2CC(=O)O)C1 [Example 19, (3S)-2-(3-(benzo[d]oxazol-2-yl(methyl)amino)-6-fluoro-3,4-dihydro-1H-carbazol-9(2H)-yl)acetic acid]",7.3,17,,31
"CCN(c1ncc(Cl)cn1)[C@H]1CCc2c(c3cc(F)ccc3n2CC(=O)O)C1 [Example 24, (3S)-2-(3-((5-chloropyrimidin-2-yl)(ethyl)amino)-6-fluoro-3,4-dihydro-1H-carbazol-9(2H)-yl)acetic acid]",1.7,19,,37
"CCCN(c1ncc(Cl)cn1)[C@H]1CCc2c(c3cc(F)ccc3n2CC(=O)O)C1 [Example 25, (3S)-2-(3-((5-chloropyrimidin-2-yl)(propyl)amino)-6-fluoro-3,4-dihydro-1H-carbazol-9(2H)-yl)acetic acid]",3.9,17,,13
"O=C(O)Cn1c2c(c3cc(F)ccc31)C[C@@H](N(CC1CC1)c1ncc(Cl)cn1)CC2 [Example 27, (3S)-2-(3-((5-chloropyrimidin-2-yl)(cyclopropylmethyl)amino)-6-fluoro-3,4-dihydro-1H-carbazol-9(2H)-yl)acetic acid]",1.7,6,,14
"CN(c1ncc2ccccc2n1)[C@H]1CCc2c(c3cc(F)ccc3n2CC(=O)O)C1 [Example 28, (3S)-2-(6-fluoro-3-(methyl(quinazolin-2-yl)amino)-3,4-dihydro-1H-carbazol-9(2H)-yl)acetic acid]",12,22,,25
"CN(c1nc2cc(F)ccc2o1)[C@H]1CCc2c(c3cc(F)ccc3n2CC(=O)O)C1 [Example 29, (3S)-2-(6-fluoro-3-((5-fluorobenzo[d]oxazol-2-yl)(methyl)amino)-3,4-dihydro-1H-carbazol-9(2H)-yl)acetic acid]",4.1,7,,4
"CN(c1nc2ccc(Cl)cc2s1)[C@H]1CCc2c(c3cc(F)ccc3n2CC(=O)O)C1 [Example 32, (3S)-2-(3-((6-chlorobenzo[d]thiazol-2-yl)(methyl)amino)-6-fluoro-3,4-dihydro-1H-carbazol-9(2H)-yl)acetic acid]",6.7,20,,33
"Cc1cc(N(C)C2CCc3c(c4cc(F)ccc4n3CC(=O)O)C2)no1 (centres unmarked) [Example 52, 2-(6-fluoro-3-(methyl(5-methylisoxazol-3-yl)amino)-3,4-dihydro-1H-carbazol-9(2H)-yl)acetic acid]",7.4,58,,
"CN(c1ncc(Cl)cn1)C1CCc2c(c3ccccc3n2CC(=O)O)C1 (centres unmarked) [Example 53, 2-(3-((5-chloropyrimidin-2-yl)(methyl)amino)-3,4-dihydro-1H-carbazol-9(2H)-yl)acetic acid]",5.1,16,,
"CN(c1ncc(Cl)cn1)C1CCc2c(c3cc(Cl)ccc3n2CC(=O)O)C1 (centres unmarked) [Example 54, 2-(6-chloro-3-((5-chloropyrimidin-2-yl)(methyl)amino)-3,4-dihydro-1H-carbazol-9(2H)-yl)acetic acid]",2,3,,
"Cc1ccc2c(c1)c1c(n2CC(=O)O)CCC(N(C)c2ncc(Cl)cn2)C1 (centres unmarked) [Example 55, 2-(3-((5-chloropyrimidin-2-yl)(methyl)amino)-6-methyl-3,4-dihydro-1H-carbazol-9(2H)-yl)acetic acid]",5.5,40,,
"CN(c1ncc(Cl)cn1)C1CCc2c(c3cc(OC(F)(F)F)ccc3n2CC(=O)O)C1 (centres unmarked) [Example 56, 2-(3-((5-chloropyrimidin-2-yl)(methyl)amino)-6-(trifluoromethoxy)-3,4-dihydro-1H-carbazol-9(2H)-yl)acetic acid]",8.8,303,,
"COc1ccc2c(c1)c1c(n2CC(=O)O)CCC(N(C)c2ncc(Cl)cn2)C1 (centres unmarked) [Example 57, 2-(3-((5-chloropyrimidin-2-yl)(methyl)amino)-6-methoxy-3,4-dihydro-1H-carbazol-9(2H)-yl)acetic acid]",4.6,56,,
"CN(c1ncc(Cl)cn1)C1CCc2c(c3cc(C(F)(F)F)ccc3n2CC(=O)O)C1 (centres unmarked) [Example 58, 2-(3-((5-chloropyrimidin-2-yl)(methyl)amino)-6-(trifluoromethyl)-3,4-dihydro-1H-carbazol-9(2H)-yl)acetic acid]",3.5,15,,
